Measurements reported in patent US11978600B2, “Dielectric-insulation or arc-extinction fluid” (HITACHI ENERGY LTD, priority 2019, dated 2024).

Legend:
[1] = Decomposition rate under partial discharge in the presence of oxygen; assay type: physicochemical; settings: gas mixture with O2 and CO2 (4 vol.-% 2-C4HF7, 4 vol.-% O2, 92 vol.-% CO2); needle-plane electrodes, positive DC 0-35 kV
Method: The decomposition rate of 2-C4HF7 in a gas mixture containing carbon dioxide and oxygen were tested. Specifically, a gas mixture containing 4 vol.-% 2-C4HF7, 4 vol.-% O2 and 92 vol.-% CO2 was subjected to partial discharge tests and the resulting decomposition was determined.
Specifically, an experimental setup consisting of a standard GIS-vessel (volume: 55 L) with a needle-plane electrode arrangement was used. A total of ten steel needles (R_100 μm) were connected to a high voltage DC power supply (positive, 0-35 kV). The gap spacing was set to 10 mm. The vessel was equipped with a fan keeping the gas mixture homogeneous during the experiments.

[2] = Dielectric withstand test (breakdown voltage, step DC, uniform field); assay type: physicochemical
Method: In addition to these tests, the dielectric strength of a mixture containing a monohydrofluoroolefin according to various embodiments, specifically 2-C4HF7, and having a dew point of −5° C. and −30° C., respectively, was determined and compared to the respective dielectric strength of the perfluoroketone decafluoro-3-methylbutan-2-one (“C5”).
Specifically, dielectric withstand tests were performed under DC (step DC, rise-time 300 ns, maximum application time 30 s) in a small vessel (6 L) and custom-built for dielectric testing. Large electrodes (12 cm diameter) with a Rogowski-profile and separated by a small (1.0 cm) distance were used to obtain a uniform field. Prior to the test, the electrodes were sandblasted to create a uniform surface roughness profile (Rt=40 μm).
A large amount of measurements (typically, more than 100) of measurements were performed; the peak voltage level used for each voltage application was randomly selected in the region close to U50, the voltage level for which a 50% breakdown probability is expected. The outcome (breakdown or hold) of each measurement is extracted from the time-dependence of the voltage across the test object. A probit regression is then used to fit the results to a probability distribution and to extract U50 and s, the width of the breakdown probability distribution, from the measurement data.

FC(=C(F)C(F)(F)F)C(F)(F)F [2-C4F8, octafluorobutene]
decomposition rate under partial discharge [1]: 7 mmol/C | breakdown voltage ([2]; negative direct current, mixture, partial pressure 228 mbar at 20° C.): 17.5 kV/mm | breakdown voltage ([2]; positive direct current, mixture, partial pressure 228 mbar at 20° C.): 17.7 kV/mm

O=C(C(F)(F)F)C(F)(C(F)(F)F)C(F)(F)F [C5, 1,1,1,3,4,4,4-heptafluoro-3-(trifluoromethyl)-butan-2-one]
breakdown voltage ([2]; negative direct current, mixture with O2 and CO2, dew point -5° C.): 19.2 kV/mm | breakdown voltage ([2]; negative direct current, mixture with O2 and CO2, dew point -30° C.): 16.5 kV/mm | breakdown voltage ([2]; positive direct current, mixture with O2 and CO2, dew point -5° C.): 19.7 kV/mm | breakdown voltage ([2]; positive direct current, mixture with O2 and CO2, dew point -30° C.): 16.9 kV/mm
